Laboratory results taken from article PMC9011347, “Small-Molecule Inhibitors Targeting Lipolysis in Human Adipocytes” (Journal of the American Chemical Society, 2022).

Columns and labels:
Experiment in all cases: Off-target lipid hydrolase assay, Expi293 lysates, p-NPV substrate
Type in all cases: biochemical
Details in all cases: NG-497 100 µM, substrate pNPV
[1] = molecular target: T1, DDHD domain-containing protein 2 (DDHD2) (Homo sapiens, UniProt O94830)
T1 construct: made in house; host or cells: Expi293 cells, lysate
Protocol: (§1) Fig. S3: Investigation of off-target effects of NG-497 on structurally and functionally related lipid hydrolases. (a) PNPLA1-dependent formation of acylceramides was monitored in a cell-based assay in HEK293T cells. Experiments were performed in the presence or absence of NG-497 (40 µM) and the non-selective lipase inhibitor Orlistat (40 µM). Orlistat, but not NG-497, inhibited PNPLA1/CGI-58-dependent ω-O-acylceramide formation. (b-h) Enzymes were overexpressed in Expi293 cells and cell lysates were used as source of enzymatic activity. Cell lysates were incubated with the indicated substrates 1-oleoyl phosphatidylcholine (LPC), di-oleoyl phosphatidic acid (PA), di-octanoyl phosphatidylglycerol (PG), or para-nitrophenylvalerate (pNPV). Experiments were performed in the presence or absence of NG-497 (100 µM) and the formation of reaction products was monitored. Cell lysates of LacZ-transfected cells were used to detect basal cellular activity. As positive controls, enzymes were inactivated with lipase inhibitors Orlistat (40 µM), R-BEL (10 µM), KLH-45 (20 nM), HSLi (10 µM), or PMSF (10µM).
(§2) Data were calculated relative to the basal activity detected in LacZ-transfected controls. (i) Activity of purified human pancreatic lipase in the presence or absence of NG-497 (100 µM) and Orlistat (20 µM) using radiolabeled triolein as substrate. (j) Inhibition of LPL and HL by NG-497 (100 µM) was investigated in human post-heparin plasma using radiolabeled triolein as substrate.
(§3) LPL activity was inhibited using an anti-LPL antibody. All data are presented as mean ± S.D. Statistical significance was determined via ANOVA followed by Bonferroni post hoc test ( ***, p < 0.001).
(§4) (1 picture or pasted object on this page, not shown here)
(§5) Co-immunoprecipitation. […]
(§6) Analysis of toxicity in HepG2 hepatocytes. […] Release of LDH into the medium was analyzed using the Cytotoxicity Detection Kit PLUS (LDH) (MilliporeSigma) according to the manufacturer’s instructions. Cytotoxicity was calculated as relative LDH release as compared to fully lysed cells. […]

[2] = molecular target: T2, carboxylesterase 2 (CES2) (Homo sapiens, UniProt O00748)
T2 construct: made in house; host or cells: Expi293 cells, lysate
Protocol: as §1, §2, §3, §4, §5, §6

[3] = molecular target: HSL (Homo sapiens, UniProt Q05469)
Protocol: as §1, §2, §3, §4, §5, §6

T1 sequence (O94830 whole entry, the tested form may be a part): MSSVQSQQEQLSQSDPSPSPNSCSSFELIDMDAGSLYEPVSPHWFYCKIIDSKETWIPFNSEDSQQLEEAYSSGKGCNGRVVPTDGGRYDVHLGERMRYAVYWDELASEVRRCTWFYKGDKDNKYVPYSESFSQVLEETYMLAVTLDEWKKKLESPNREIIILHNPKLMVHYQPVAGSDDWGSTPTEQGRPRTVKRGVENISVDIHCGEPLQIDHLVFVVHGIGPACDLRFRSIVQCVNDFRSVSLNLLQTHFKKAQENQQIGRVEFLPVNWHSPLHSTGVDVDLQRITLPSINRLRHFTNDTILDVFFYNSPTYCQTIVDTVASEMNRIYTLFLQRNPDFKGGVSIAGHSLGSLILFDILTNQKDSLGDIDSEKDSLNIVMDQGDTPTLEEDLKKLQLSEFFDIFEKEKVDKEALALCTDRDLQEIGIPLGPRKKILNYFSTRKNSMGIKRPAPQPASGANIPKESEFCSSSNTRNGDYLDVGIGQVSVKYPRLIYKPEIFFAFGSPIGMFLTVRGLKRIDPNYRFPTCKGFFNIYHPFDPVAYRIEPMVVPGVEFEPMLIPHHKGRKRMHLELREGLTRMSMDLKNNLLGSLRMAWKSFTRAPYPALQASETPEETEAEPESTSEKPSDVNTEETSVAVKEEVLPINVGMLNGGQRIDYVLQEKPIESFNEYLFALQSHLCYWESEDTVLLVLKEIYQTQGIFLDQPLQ
T2 sequence (O00748 27-559): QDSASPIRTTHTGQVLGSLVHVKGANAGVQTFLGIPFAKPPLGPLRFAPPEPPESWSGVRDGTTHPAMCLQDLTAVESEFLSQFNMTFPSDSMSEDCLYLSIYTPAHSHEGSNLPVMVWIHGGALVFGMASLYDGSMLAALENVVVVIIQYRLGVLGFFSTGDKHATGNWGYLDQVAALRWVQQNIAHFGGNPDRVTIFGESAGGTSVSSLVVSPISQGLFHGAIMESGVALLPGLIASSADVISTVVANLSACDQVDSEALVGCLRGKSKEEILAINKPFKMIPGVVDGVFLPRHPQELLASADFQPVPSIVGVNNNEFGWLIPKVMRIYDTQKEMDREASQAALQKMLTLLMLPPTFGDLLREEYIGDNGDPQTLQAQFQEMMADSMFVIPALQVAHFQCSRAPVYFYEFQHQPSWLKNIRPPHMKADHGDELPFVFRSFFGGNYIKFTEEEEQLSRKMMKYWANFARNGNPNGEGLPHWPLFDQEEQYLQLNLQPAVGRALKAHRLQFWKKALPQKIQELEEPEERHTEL
Sequence of HSL (Q05469 302-1076 limits assumed): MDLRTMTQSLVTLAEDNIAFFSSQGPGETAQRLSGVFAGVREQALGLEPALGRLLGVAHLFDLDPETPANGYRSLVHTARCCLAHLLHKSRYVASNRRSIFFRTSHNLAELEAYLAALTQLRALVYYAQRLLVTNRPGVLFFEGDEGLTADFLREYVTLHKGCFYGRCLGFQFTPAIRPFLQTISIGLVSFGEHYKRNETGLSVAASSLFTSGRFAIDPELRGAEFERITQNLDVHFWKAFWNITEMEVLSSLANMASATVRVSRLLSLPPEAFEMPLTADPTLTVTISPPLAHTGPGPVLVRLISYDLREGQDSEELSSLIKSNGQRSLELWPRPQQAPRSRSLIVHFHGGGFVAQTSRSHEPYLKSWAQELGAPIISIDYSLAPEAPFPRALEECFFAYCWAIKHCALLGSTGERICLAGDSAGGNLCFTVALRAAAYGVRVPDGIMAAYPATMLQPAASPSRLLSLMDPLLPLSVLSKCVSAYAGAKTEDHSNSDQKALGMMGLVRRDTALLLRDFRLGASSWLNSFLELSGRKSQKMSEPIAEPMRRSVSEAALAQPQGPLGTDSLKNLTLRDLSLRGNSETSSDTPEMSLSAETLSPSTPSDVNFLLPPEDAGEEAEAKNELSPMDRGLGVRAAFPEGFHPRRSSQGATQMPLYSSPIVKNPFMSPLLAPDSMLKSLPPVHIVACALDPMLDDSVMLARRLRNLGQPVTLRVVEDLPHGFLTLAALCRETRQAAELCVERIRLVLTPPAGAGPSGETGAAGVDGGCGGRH

CCOc1ccc(-c2cc(OC)cc(C(=O)OC(C)C)n2)cc1 [NG-497]
did not observe inhibition: inhibition of DDHD2 [1] | inhibition of CES2 [2] | inhibition of HSL [3]
